Source: patent US20070178152A1, “Carboxyalkylcellulose esters for administration of poorly soluble pharmaceutically active agents” (priority 2005, published 2007)
“And” between values parts separate entries of the source, which are not always exact repeats. Equal values may be shown once. Blank lines part the entries; values can stand above or below the compound they belong to.

What was measured:
[1] = Dissolution of glyburide and glyburide solid dispersions in SIFsp, pH 6.8; format: physicochemical; set-up: drug released per capsule, Table 18C (quantity not headed): unit not given here; conditions: for % Drug Released / Total Drug Released / Normalized Drug Released / drug released per capsule, Table 18C (quantity not headed): gelatin capsule
Description: (§1) All dissolution studies were performed on a Varian VK7025 Dissolution Apparatus equipped with a Varian VK8000 Fraction Collector
(§2) HPLC Methods for Evaluating Dissolution Aliquots:
(§3) Determination of Weight % Phenytoin, Carbamazepine, Glyburide, or Griseofulvin.
(§4) Mobile Phase: 55% acetonitrile/45% ammonium acetate buffer (2.6 g NH4OAc/L H2O with pH adjusted to pH˜5.25 with glacial acetic acid)
(§5) Column: Agilent Eclipse XDB-C8, 4.6 mm×150 mm×5 μm
(§6) Detection: UV 254 nm (UV 214 nm can also be used for phenytoin or carbamazepine, UV 291 nm can also be used for griseofulvin); typically five signals were selected from UV 214 nm, 222 nm, 254 nm, 287 nm, 291 nm, and/or 325 nm were collected for each sample.
Preparation of Glyburide Standard Curves
Glyburide reference standard from USP was dried as directed (106° C. for six hours), then approximately 20-25 mg of glyburide are added to a 25-mL volumetric flask and dissolved in DMSO or 55% acetonitrile/45% ammonium acetate, pH 5.25. The volume was diluted to 25 mL. A set of standard dilutions were prepared either using 10-mL volumetric flasks or Rainin automatic pipetmen.
(§7) Simulated Intestinal Fluid, without pancreatin, pH 6.8 (SIFsp, pH 6.8)—Added monobasic potassium phosphate (KH2PO4, 34 g) to a 4000-mL beaker. Added deionized/polished water (2000 mL) and mixed using a magnetic stir bar until the KH2PO4 is completely dissolved. Added 0.2 N sodium hydroxide (NaOH, 590 mL) and stirred. The pH was adjusted to pH 6.8±0.1 using 0.2 N NaOH. The sample was diluted with deionized/polished water to a final volume of 5000 mL.
(§8) The SIFsp media was heated to ˜45° C. in four 2000-mL Kimax bottles in an oven. The sample was degassed according to USP protocol by filtering through a 0.45 μm membrane filter (Pall, Supor-450, 0.45 μm, 90 mm, part # 60200, Lot # 43214) and stirring under vacuum for 5 minutes.
(§9) Dissolution Conditions #1.
(§10) Dissolution Conditions #2.
These Examples describe the dissolution of glyburide and glyburide solid Dispersions by evaluating the samples described in Examples 109-117. SlFsp, pH 6.8 media preperation was described in the Materials and Methods section.
Samples were transferred into gelatin capsules (Capsugel, size OCS, Lot #624282) using a manual single capsule filler. The weight of each capsule and the amount of sample added are found in Table 18 (Capsule Description).
These Examples describe the dissolution of glyburide and glyburide solid dispersions by evaluating the samples described in Examples 119-124. SIFsp, pH 6.8 media preperation was described in the Materials and Methods section.
Samples were transferred into gelatin capsules (Capsugel, size OCS, Lot # 624282) using a manual single capsule filler. The weight of each capsule and the amount of sample added are found in Tables 19 and 20 (Capsule Description).

[2] = Dissolution of griseofulvin and griseofulvin solid dispersions (with or without surfactant) in SIFsp, pH 6.8; format: physicochemical; conditions: for % Drug Released / Total Drug Released: SIFsp pH 6.8, gelatin capsule, single vessel; for Average % Released: SIFsp, pH 6.8, average of runs
Description: as §1, §2, §3, §4, §5, §6, §7, §8, §9, §10
These Examples describe the dissolution of griseofulvin and griseofulvin solid dispersions by evaluating the samples described in Examples 125-134. SlFsp, pH 6.8 media preparation was described in the Materials and Methods section.
Samples were transferred into gelatin capsules (Capsugel, size 0CS, Lot # 624282) using a manual single capsule filler. The weight of each capsule and the amount of sample added are found in Table 21 and 22 (Capsule Description).
These Examples describe the impact of surfactant additives on the dissolution profiles of griseofulvin/CMCAB solid dispersions. Preparations of the griseofulvin/CMCAB, griseofulvin/CMCAB/Tween 80, and griseofulvin/CMCAB/SDS solid dispersions evaluated in this example are described in Examples 135-138. SIFsp, pH 6.8 media preparation was described in the Materials and Methods section.
Samples were transferred into gelatin capsules (Capsugel, size 00CS, Lot # 637785) using a manual single capsule filler. The weight of each capsule and the amount of sample added are found in Table 23 (Capsule Description).

Average % Released ([1]; 10 min, average of capsules): 0.1549%
Average % Released ([1]; 10 min, average of vessels): 0.0373%
% Drug Released ([1]; 10 min, single vessel): 0.0362% and 0.0355% and 0.0403%
Total Drug Released ([1]; 15 min, single vessel): 0.0321 mg
Average % Released ([1]; 20 min, average of capsules): 1.0081%
Average % Released ([1]; 20 min, average of vessels): 0.2490%
Normalized Drug Released ([1]; 20 min): 0.7201 mg and 0.7299 mg
drug released per capsule, Table 18C (quantity not headed) ([1]; 20 min): 1.0149 and 1.0013
% Drug Released ([1]; 20 min, single vessel): 0.0355% and 0.2912% and 0.4202%
Average % Released ([1]; 30 min, average of capsules): 1.2315%
Average % Released ([1]; 30 min, average of vessels): 0.4372%
Normalized Drug Released ([1]; 30 min): 0.8728 mg and 0.8986 mg
drug released per capsule, Table 18C (quantity not headed) ([1]; 30 min): 1.2495 and 1.2136
% Drug Released ([1]; 30 min, single vessel): 0.4237% and 0.4293% and 0.4587%
Total Drug Released ([1]; 45 min, single vessel): 0.3834 mg and 0.3424 mg and 0.4071 mg
Average % Released ([1]; 60 min, average of capsules): 1.7763%
Average % Released ([1]; 60 min, average of vessels): 0.5522%
Normalized Drug Released ([1]; 60 min): 1.2890 mg and 1.2660 mg
drug released per capsule, Table 18C (quantity not headed) ([1]; 60 min): 1.7923 and 1.7603
% Drug Released ([1]; 60 min, single vessel): 0.4365% and 0.5720% and 0.6480%
Total Drug Released ([1]; 60 min, single vessel): 0.3950 mg and 0.4562 mg and 0.5752 mg
Total Drug Released ([1]; 90 min, single vessel): 0.6124 mg and 0.6166 mg and 0.7677 mg
Average % Released ([1]; 120 min, average of capsules): 2.1001%
Average % Released ([1]; 120 min, average of vessels): 0.7716%
Normalized Drug Released ([1]; 120 min): 1.5740 mg and 1.4468 mg
drug released per capsule, Table 18C (quantity not headed) ([1]; 120 min): 2.1886 and 2.0117
% Drug Released ([1]; 120 min, single vessel): 0.6767% and 0.7732% and 0.8649%
Total Drug Released ([1]; 120 min, single vessel): 0.7134 mg and 0.7222 mg and 0.8356 mg
Total Drug Released ([1]; 150 min, single vessel): 0.8270 mg and 0.8369 mg and 0.9711 mg
Average % Released ([1]; 180 min, average of capsules): 2.2533%
Average % Released ([1]; 180 min, average of vessels): 0.8784%
Normalized Drug Released ([1]; 180 min): 1.6724 mg and 1.5688 mg
drug released per capsule, Table 18C (quantity not headed) ([1]; 180 min): 2.3253 and 2.1813
% Drug Released ([1]; 180 min, single vessel): 0.7882% and 0.9056% and 0.9414%
Total Drug Released ([1]; 180 min, single vessel): 0.8919 mg and 0.9402 mg and 0.9572 mg
Total Drug Released ([1]; 210 min, single vessel): 0.9428 mg and 0.9956 mg and 1.4143 mg
Average % Released ([1]; 240 min, average of capsules): 2.3376%
Average % Released ([1]; 240 min, average of vessels): 1.0191%
Normalized Drug Released ([1]; 240 min): 1.7153 mg and 1.6471 mg
Total Drug Released ([1]; 240 min): 0.1934 mg and 0.1252 mg
drug released per capsule, Table 18C (quantity not headed) ([1]; 240 min): 2.3850 and 2.2902
% Drug Released ([1]; 240 min, single vessel): 0.9138% and 1.0495% and 1.0941%
Total Drug Released ([1]; 240 min, single vessel): 1.0358 mg and 1.0726 mg and 1.2243 mg
Average % Released ([1]; 300 min, average of capsules): 2.4335%
Average % Released ([1]; 300 min, average of vessels): 1.0810%
Normalized Drug Released ([1]; 300 min): 1.7802 mg and 1.7202 mg
Total Drug Released ([1]; 300 min): 0.2583 mg and 0.1982 mg
drug released per capsule, Table 18C (quantity not headed) ([1]; 300 min): 2.4752 and 2.3918
% Drug Released ([1]; 300 min, single vessel): 0.9855% and 1.1790% and 1.0784%
Average % Released ([1]; 360 min, average of capsules): 2.5067%
Average % Released ([1]; 360 min, average of vessels): 1.2945%
Normalized Drug Released ([1]; 360 min): 1.8465 mg and 1.7592 mg
Total Drug Released ([1]; 360 min): 0.3246 mg and 0.2373 mg
drug released per capsule, Table 18C (quantity not headed) ([1]; 360 min): 2.5674 and 2.4461
% Drug Released ([1]; 360 min, single vessel): 1.0417% and 1.2484% and 1.5934%
Average % Released ([1]; 450 min, average of capsules): 2.5617%
Average % Released ([1]; 450 min, average of vessels): 1.2896%
Normalized Drug Released ([1]; 450 min): 1.8424 mg
Total Drug Released ([1]; 450 min): 0.3205 mg
drug released per capsule, Table 18C (quantity not headed) ([1]; 450 min): 2.5617
% Drug Released ([1]; 450 min, single vessel): 1.1444% and 1.3449% and 1.3793%
SMILES: COc1ccc(Cl)cc1C(=O)NCCc1ccc(S(=O)(=O)NC(=O)NC2CCCCC2)cc1 [Glyburide]

griseofulvin release profile ([2]; SIFsp pH 6.8, FIGS. 7-14, in words): rapid release
Average % Released ([2]; 15 min): 39.3874%
Average % Released ([2]; 30 min): 40.0500%
Average % Released ([2]; 45 min): 39.9934%
Average % Released ([2]; 60 min): 40.2064%
Average % Released ([2]; 90 min): 40.8136%
Average % Released ([2]; 120 min): 40.8282%
Average % Released ([2]; 150 min): 39.9849%
Average % Released ([2]; 180 min): 39.5350%
Average % Released ([2]; 210 min): 39.8114%
Average % Released ([2]; 240 min): 39.8038%
SMILES: COC1=CC(=O)C[C@@H](C)[C@]12Oc1c(Cl)c(OC)cc(OC)c1C2=O [griseofulvin, Griseofulvin]
% Drug Released ([2]; 15 min): 39.8059% and 45.3135% and 36.6133% and 35.8167%
Total Drug Released ([2]; 15 min): 13.1651 mg and 12.7375 mg and 12.9809 mg and 12.9579 mg
% Drug Released ([2]; 30 min): 37.0470% and 36.5664% and 39.6132% and 46.9736%
Total Drug Released ([2]; 30 min): 13.1347 mg and 13.2291 mg and 13.1014 mg and 13.0986 mg
% Drug Released ([2]; 45 min): 36.6587% and 36.6412% and 39.5262% and 47.1475%
Total Drug Released ([2]; 45 min): 12.9970 mg and 13.2561 mg and 13.0726 mg and 13.1471 mg
% Drug Released ([2]; 60 min): 37.2839% and 36.7251% and 40.3033% and 46.5134%
Total Drug Released ([2]; 60 min): 13.2187 mg and 13.2865 mg and 13.3296 mg and 12.9703 mg
% Drug Released ([2]; 90 min): 36.3266% and 35.9752% and 39.8005% and 51.1520%
Total Drug Released ([2]; 90 min): 12.8793 mg and 13.0152 mg and 13.1633 mg and 14.2638 mg
% Drug Released ([2]; 120 min): 38.9498% and 36.7450% and 40.2775% and 47.3403%
Total Drug Released ([2]; 120 min): 13.8093 mg and 13.2937 mg and 13.3211 mg and 13.2009 mg
% Drug Released ([2]; 150 min): 36.6774% and 35.8335% and 39.6316% and 47.7972%
Total Drug Released ([2]; 150 min): 13.0036 mg and 12.9639 mg and 13.1075 mg and 13.3283 mg
% Drug Released ([2]; 180 min): 36.6068% and 35.6474% and 39.0996% and 46.7861%
Total Drug Released ([2]; 180 min): 12.9786 mg and 12.8966 mg and 12.9315 mg and 13.0464 mg
% Drug Released ([2]; 210 min): 37.1385% and 35.7882% and 39.5796% and 46.7393%
Total Drug Released ([2]; 210 min): 13.1671 mg and 12.9476 mg and 13.0903 mg and 13.0333 mg
% Drug Released ([2]; 240 min): 36.7973% and 36.6212% and 39.5780% and 46.2187%
Total Drug Released ([2]; 240 min): 13.0461 mg and 13.2489 mg and 13.0897 mg and 12.8881 mg
